Measurements reported in ChEMBL document CHEMBL1201862, “PubChem BioAssay data set” (2004).
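Briefly, cells in 96-well plates were exposed to five compound concentrations for 48 h, and endpoints were estimated by linear interpolation. GI50 is the concentration that inhibits growth by half.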 Calls of active or inactive are those of the source. No stated cut-off is given here; in the data, active = GI50 up to about 1.1 µM and inactive = higher.

Tests used:
Assay in all cases: DTP human tumour cell line panel, 48 h
ACHN = test system: ACHN
OVCAR-5 = test system: OVCAR-5
SF-268 = test system: SF-268
EKVX = test system: EKVX
NCI-H226 = test system: NCI-H226
OVCAR-3 = test system: OVCAR-3
SK-OV-3 = test system: SK-OV-3
M14 = test system: M14
786-0 = test system: 786-0
CCRF-CEM = test system: CCRF-CEM
SNB-75 = test system: SNB-75
DU-145 = test system: DU-145
MDA-N = test system: MDA-N
T47D = test system: T47D
U-251 = test system: U-251
SK-MEL-5 = test system: SK-MEL-5
MCF7 = test system: MCF7
BT-549 = test system: BT-549
MDA-MB-435 = test system: MDA-MB-435
A498 = test system: A498

Compound | GI50 (ACHN) | GI50 (OVCAR-5) | GI50 (SF-268) | GI50 (EKVX) | GI50 (NCI-H226) | GI50 (OVCAR-3) | GI50 (SK-OV-3) | GI50 (M14) | GI50 (786-0) | GI50 (CCRF-CEM) | GI50 (SNB-75) | GI50 (DU-145) | GI50 (MDA-N) | GI50 (T47D) | GI50 (U-251) | GI50 (SK-MEL-5) | GI50 (MCF7) | GI50 (BT-549) | GI50 (MDA-MB-435) | GI50 (A498)
CCn1c(CCl)nc2c1C(=O)c1ccccc1C2=O | 3.72 µM (inactive) | 1.84 µM (inactive) | 2.61 µM (inactive) | 2.46 µM (inactive) | 0.225 µM (active) | 1.69 µM (inactive) | 0.515 µM (active) | 1.63 µM (inactive) | 3.04 µM (inactive) | 0.171 µM (active) | 1.58 µM (inactive) | 2.67 µM (inactive) | 2.17 µM (inactive) | 1.95 µM (inactive) | 1.71 µM (inactive) | 0.42 µM (active) | 1.87 µM (inactive) | 2.18 µM (inactive) | 1.69 µM (inactive) | 
COC(=O)[C@@]1(Cc2ccc(O)cc2)C[C@@H]2Cc3ccccc3N2N1 | > 100 µM (inactive) | > 100 µM (inactive) | > 100 µM (inactive) | 64.7 µM (inactive) | 90.8 µM (inactive) | > 100 µM (inactive) | > 100 µM (inactive) | 38.8 µM (inactive) | > 100 µM (inactive) |  |  | > 100 µM (inactive) | 44.8 µM (inactive) | 23.5 µM (inactive) | 57.1 µM (inactive) | 34.5 µM (inactive) | 63.2 µM (inactive) | 45 µM (inactive) | > 100 µM (inactive) | 27.9 µM (inactive)
COC(=O)[C@H]1C[C@H]1NC(=O)C(CC(=O)OCc1ccccc1)NC(=O)OCc1ccccc1 (stereo partly specified) | 36.8 µM (inactive) | > 100 µM (inactive) | 55.2 µM (inactive) | 44.3 µM (inactive) | 89.5 µM (inactive) |  | 55 µM (inactive) | 25.7 µM (inactive) | > 100 µM (inactive) | 31.6 µM (inactive) | 36.2 µM (inactive) | 73.5 µM (inactive) | 60.1 µM (inactive) | 11.9 µM (inactive) | 81.5 µM (inactive) | 25.4 µM (inactive) | 44.1 µM (inactive) | 23.4 µM (inactive) | 35 µM (inactive) | 61.8 µM (inactive)
O=C(O)CSc1nnc(CCCCCCCCc2nnc(SCC(=O)O)o2)o1 | > 100 µM (inactive) | > 100 µM (inactive) | > 100 µM (inactive) | > 100 µM (inactive) | > 100 µM (inactive) |  | > 100 µM (inactive) | > 100 µM (inactive) | > 100 µM (inactive) | > 100 µM (inactive) | 21.9 µM (inactive) | > 100 µM (inactive) | > 100 µM (inactive) | > 100 µM (inactive) | > 100 µM (inactive) | > 100 µM (inactive) | > 100 µM (inactive) | > 100 µM (inactive) | > 100 µM (inactive) | > 100 µM (inactive)
COc1ccc(/N=c2/oc3ccccc3cc2C(N)=O)cc1 | 18.4 µM (inactive) |  | 17.9 µM (inactive) | > 100 µM (inactive) | 65.9 µM (inactive) | > 100 µM (inactive) | 20 µM (inactive) | 55.2 µM (inactive) | 23.7 µM (inactive) | > 100 µM (inactive) | 36.6 µM (inactive) | > 100 µM (inactive) | > 100 µM (inactive) | > 100 µM (inactive) | 33.3 µM (inactive) | > 100 µM (inactive) | 22.5 µM (inactive) | 32.3 µM (inactive) | 92.5 µM (inactive) | 
CCOC(=O)c1cnc(-n2[nH]c3c(c2=O)CCCC3)[nH]c1=O | 50.2 µM (inactive) | 82.4 µM (inactive) | 55.8 µM (inactive) | 80.4 µM (inactive) | 47.1 µM (inactive) |  | 80.5 µM (inactive) | 36.4 µM (inactive) | 60 µM (inactive) | 28.8 µM (inactive) |  | 57.9 µM (inactive) | 86.1 µM (inactive) | > 100 µM (inactive) | 39.7 µM (inactive) | 75.2 µM (inactive) |  | 47.1 µM (inactive) | 47.8 µM (inactive) | 62.8 µM (inactive)
c1ccc2c(C3CCN(CCN4CCOCC4)C3)c[nH]c2c1 (stereo unspecified) | > 100 µM (inactive) | > 100 µM (inactive) | > 100 µM (inactive) | > 100 µM (inactive) |  | > 100 µM (inactive) | > 100 µM (inactive) | > 100 µM (inactive) | > 100 µM (inactive) | > 100 µM (inactive) | > 100 µM (inactive) | > 100 µM (inactive) | > 100 µM (inactive) | > 100 µM (inactive) | > 100 µM (inactive) | > 100 µM (inactive) | > 100 µM (inactive) | > 100 µM (inactive) | > 100 µM (inactive) | > 100 µM (inactive)
COc1cc2c(c(OC)c1)[C@H](C)N(Cc1ccccc1)C(C)C2 (stereo partly specified) | 31.3 µM (inactive) |  | 80.2 µM (inactive) | > 100 µM (inactive) | 23.7 µM (inactive) |  | > 100 µM (inactive) | 17.7 µM (inactive) | 36.1 µM (inactive) | 36.6 µM (inactive) | 41.1 µM (inactive) | > 100 µM (inactive) | > 10 µM (inactive) | 45.9 µM (inactive) |  | 25.4 µM (inactive) | 42.2 µM (inactive) | 61.8 µM (inactive) | 16.3 µM (inactive) | > 100 µM (inactive)
